Active and inactive are the calls of the source.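 Rule for the calls: active = compounds giving half or more protection of infected cells from virus-caused growth loss, again on retest; inactive = the rest.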
Tested on: CEM cells HIV-1 protection, formazan growth assay
Experiment: NCI AIDS Antiviral Assay
Details: for IC50: measured here: growth of uninfected CEM cells
Summary of the method: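 Steps: treat uninfected and HIV-1-infected human CEM cells at five drug levels; quantify growth by soluble formazan; retest any compound reaching 50% protection; classify actives from the retest.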

SMILES | EC50 [µM] | IC50 [µM] | outcome
CCc1cccc(C(C)(C)C)c1NC(=S)N/C=C(\c1ccccc1)S(=O)Cc1ccccc1 (stereo unspecified) | 182 | > 200 | –
CC(=O)Oc1ccc(-c2oc3c([C@H]4C=C(C)CC(c5ccc(OC(C)=O)cc5OC(C)=O)[C@@H]4C(=O)c4ccc(OC(C)=O)c(CC=C(C)C)c4OC(C)=O)c(OC(C)=O)cc(OC(C)=O)c3c(=O)c2CC=C(C)C)c(OC(C)=O)c1 (stereo partly specified) | > 8.13 | > 8.13 | –
COc1cc(/C=C2\N=C(C)N(n3c(-c4ccccc4)nc4ccccc4c3=O)C2=O)cc(OC)c1OC | > 200 | 38.9 | –
Cc1cc(C)c(C(=O)c2cccc(C)c2C(=O)O)c(C)c1 | > 200 | > 200 | –
COCOC1/C=C/CCCCC2=C(C)C=C(C1)O2 (stereo unspecified) | > 141 | 132 | –
CCc1[nH]nc(-c2ccc(OC)cc2)c1-c1ccccc1O | > 200 | 20.9 | –
CC(C)(C)C(=O)OCOP(=O)(OCOC(=O)C(C)(C)C)OCC1OC(N2C=CC(N)NC2=O)CC1F (stereo unspecified) | 1.12 | 87.1 | –
C#CC1NC(=O)C1N(CC)CC (stereo unspecified) | – | – | inactive
Nc1ccnc(N)c1N=O | > 200 | 27.5 | –
COc1ccccc1NC(=O)/C(=C\N1C(=O)/C(=C/c2cc(OC)c(OC)c(OC)c2)SC1=S)C(C)=O | > 100 | 12.9 | –
COc1ccc(-n2c(C)nc3ccc(NC(=S)Nc4ccccc4)cc3c2=O)cc1 | > 200 | > 200 | –
COC(=O)c1ccccc1/C=C1\Cc2cc(C)cc(C)c2C1=O | – | – | inactive
Brc1ccc2c(c1)C1C(CO2)C(c2ccccc2)=NN1c1ccccc1 (stereo unspecified) | > 64.6 | > 64.6 | –
O=[N+]([O-])c1ccc(Cl)cc1N/N=C/c1cccc2cccnc12 | > 200 | > 200 | –
CC(=O)OCC1C(=O)OCC1C(=O)N1Cc2cc3ccccc3nc2C1 (stereo unspecified) | > 20 | 0.331 | –
COC(=O)CCC(C)C1CCC2C3CCC4CC5CCC4C3(CO5)C(=O)C(Br)C12C (stereo unspecified) | > 10.7 | > 10.7 | –
O=C(/C=C/c1ccc(OCCCCCCCCCCOc2ccc(/C=C/C(=O)c3ccc(Cl)cc3)cc2)cc1)c1ccc(Cl)cc1 | > 4.17 | > 4.17 | –
O=C1CC2(CCC(O)(c3cccs3)C(C(=O)c3cccs3)C2)C(=O)c2ccccc2N1 (stereo unspecified) | > 200 | > 200 | –
O=C(CCC(NC(=O)OCc1ccccc1)C(=O)OCc1ccccc1)Nc1ccc(OCc2ccccc2)cc1 (stereo unspecified) | > 200 | 126 | –
O=C1/C(=C/c2ccc(O)cc2)CC/C1=C\c1ccc(O)cc1 | > 200 | 31.6 | –
CC(C)(C)OC(=O)NCCCCC(NC(=O)OCc1ccccc1)C(N)=O (stereo unspecified) | > 200 | > 200 | –
CCOC(=O)/C(=C/c1cn(C(C)=O)c2ccccc12)P(=O)(OC)OC | > 200 | 72.4 | –

SMILES | EC50 [µM] | IC50 [µM] | outcome
Nc1cc(S(=O)(=O)O)c(O)c2c1C(=O)c1c(O)c(S(=O)(=O)O)cc(N)c1C2=O | – | – | inactive
C[n+]1c2cc(N)ccc2cc2ccc(N)cc21 (tested in a mixture with another compound) | > 200 | 0.316 | –
O=C(NNC(=S)S)c1ccncc1 | > 200 | 95.5 | –
CN(C)NC(=S)Nc1ccccc1Br | > 200 | > 200 | –
NC(CSS(=O)(=O)O)=NC1CCCCC1 | > 200 | 138 | –
N=C(N)SC(c1ccccc1)C(O)c1ccccc1 (stereo unspecified) | > 200 | 91.2 | –
CN=C(Nc1cccc(C(F)(F)F)c1)SCc1ccc(N=C=S)cc1 | – | – | inactive
O=C1C=CC(=O)c2c1ccc1c3ccccc3n(-c3cccc([N+](=O)[O-])c3)c21 | > 100 | 4.79 | –
CS(=O)(=O)O[C@H]1[C@H](O)c2ccccc2[C@@H]1N=[N+]=[N-] | > 200 | > 200 | –
CC1(C)C(=O)C(C(Cl)(Cl)Cl)=C(Cl)C(=O)C1(Cl)Cl | > 200 | 25.7 | –
Cc1ccc(S(=O)(=O)NC(=O)NCCSSCCNC(=O)NS(=O)(=O)c2ccc(C)cc2)cc1 | > 200 | > 200 | –
Cc1ccc(S(=O)(=O)NCCCN(CCCNS(=O)(=O)c2ccc(C)cc2)S(=O)(=O)c2ccc(C)cc2)cc1 | > 2.45 | > 2.45 | –
NCCCCC(NC(=O)C(N)Cc1ccc(O)cn1)C(=O)O (stereo unspecified) | > 200 | > 200 | –
O=P(Nc1ccccc1)(Nc1ccccc1)Nc1ccccc1 | > 155 | 141 | –
CCOC(=O)C(Cc1c[nH]c2ccc(N)cc12)(NC(C)=O)C(=O)OCC | > 200 | > 200 | –
CC[C@@]12CCC(=O)N3CCC4(C(=C(C(=O)OC)C1)Nc1ccccc14)[C@H]32 (stereo partly specified) | > 269 | 15.5 | –
O=C(NN1C(=O)C(Cl)C1c1cccc(Cl)c1)c1ccccc1O (stereo unspecified) | > 74.1 | > 74.1 | –
Cc1cc2c(cc1C)NC(=O)CC(=O)N2 | > 200 | > 200 | –
O=C1CCCC/C1=C\c1ccc([N+](=O)[O-])cc1 | > 200 | 6.03 | –
O=C(C(=O)n1ncc(Cl)c(Cl)c1=O)n1ncc(Cl)c(Cl)c1=O | > 93.3 | 50.1 | –
O=C1CCCC/C1=C\c1ccc(Br)cc1 | > 200 | 10.7 | –
COC1/C=C/OC2(C)Oc3c(C)c(O)c4c(O)c(cc(OCC(=O)N5CC(C)(C)C5)c4c3C2=O)NC(=O)/C(C)=C/C=CC(C)C(O)C(C)C(O)C(C)C(OC(C)=O)C1C (stereo unspecified) | > 200 | 26.9 | –

SMILES | EC50 [µM] | IC50 [µM] | outcome
N[C@@H](CCC(=O)NC(Cc1ccccc1)C(=O)NCP(=O)(O)O)C(=O)O (stereo partly specified) | > 200 | > 200 | –
CP1(=O)CC(=O)CCCCC(=O)C1 | – | – | inactive
Cn1c(NNc2ccccc2)cc(=O)[nH]c1=O | > 200 | 28.8 | –
CCOC(=O)C1=C(C)N(C2OC(COC(=O)c3ccccc3)C(OC(=O)c3ccccc3)C2OC(=O)c2ccccc2)C(=S)NC1c1ccccc1 (stereo unspecified) | > 50.1 | > 50.1 | –
COc1ccccc1NC(=S)N/N=C/c1ccccn1 | > 0.2 | 0.0955 | –
CCOC(=O)c1nc2ccccc2nc1Oc1ccc(C(=O)OC)cc1 | > 200 | > 200 | –
Cc1ccc2nc(-c3ccccc3)c(N=O)n2c1 | > 200 | 170 | –
CCOC(=O)CC1c2ccc(O)cc2OC(=O)C1c1ccc(N)cc1 (stereo unspecified) | > 200 | > 200 | –
CCCCc1c2c(nc3c1CCCC3O)CCCC2 (stereo unspecified) | > 200 | 81.3 | –
O=C1c2ccccc2C(=O)c2sc(Nc3ccc(Cl)cc3)nc21 | > 11 | 4.68 | –
C[C@@]12c3c4ccc(C=O)c3Oc3ccc(C=O)c(c31)Oc1c(C=O)ccc(c12)O4 | > 50.1 | > 50.1 | –
COc1ccc(C2=CSC3=NC(C)(C)CC(C)=NN23)cc1 | > 316 | 170 | –
O=C(CC(C(=O)c1ccsc1)c1ccccc1)c1ccccc1 (stereo unspecified) | > 200 | 174 | –
N#C/C(=C/n1c(=S)sc2ccccc21)c1nc2ccccc2s1 | > 200 | 102 | –
OCC(O)C(OC1OC(CO)C(O)C(O)C1O)c1nn(-c2ccc(Cl)cc2)c2nc3cc(Cl)c(Cl)cc3nc12 (stereo unspecified) | – | – | inactive
N#CC(C(=O)CCCC(=O)Nc1ccc(Cl)cc1Cl)c1ccc(Cl)cc1 (stereo unspecified) | – | – | inactive
NC1CCCCC1NCCNC1CCCCC1N (stereo unspecified) | > 200 | 178 | –
OCC(O)C(OC1OC(CO)C(O)C(O)C1O)C(O)C(/C=N\Nc1ccccc1)=N/Nc1ccccc1 (stereo unspecified) | > 200 | 4.9 | –
C[C@@H](c1ccccc1)N(CC#N)[C@H]1CCC[C@]1(O)/C=C/c1ccc2c(c1)OCO2 | > 50.1 | > 50.1 | –
O=c1c(SCc2ccccc2)c(N2CCCCC2)cnn1-c1ccccc1 | > 69.2 | > 69.2 | –
CNC(=S)NNC1=NCCCCN1 | > 200 | 110 | –
O=C1C(Br)=C[C@H]2C3C=CC(Br)(C3=O)[C@@H]12 (stereo partly specified) | > 794 | 3.72 | –

SMILES | EC50 [µM] | IC50 [µM] | outcome
O=S(=O)(c1ccccc1)C1CN2OC1(S(=O)(=O)c1ccccc1)CC2c1ccc(Br)cc1 (stereo unspecified) | – | – | inactive
CC(C)(C)OC1=C(OC(C)(C)C)C(O)(c2ccccc2)C1=O (stereo unspecified) | – | – | inactive
CN(C)/C=N/NC(=O)C(O)(c1ccccc1)c1ccccc1 | > 200 | > 200 | –
COc1ccc(N2CCCSC2=S)cc1 | > 200 | > 200 | –
COC(=O)c1cc2cc(OC)c(OC)cc2cc(C(=O)OC)c1=O | > 10.7 | > 10.7 | –
CC(NC1=NCCO1)c1ccsc1 (stereo unspecified) | > 200 | 64.6 | –
CCN1CCC(O)(c2ccc(Oc3ccccc3)cc2)C(C(=O)c2ccc(Oc3ccccc3)cc2)C1 (stereo unspecified) | > 200 | 13.2 | –
CNCCSS(=O)(=O)CCNC | 214 | 457 | –
COC(=O)C(C(=O)C(=O)Nc1ccc(OC)cc1[N+](=O)[O-])c1nc2cc(C)c(C)cc2[nH]c1=O (stereo unspecified) | > 15.5 | > 15.5 | –
O=C(c1ccccc1)N1CCN(C(=S)NC2CCCCC2)C1=S | > 200 | 12 | –
COC(=O)C(Cc1c(C2Nc3ccccc3C2CC(NC(=O)CNC(C)=O)C(=O)OC)[nH]c2ccccc12)NC(=O)CNC(C)=O (stereo unspecified) | > 200 | > 200 | –
O=C(c1ccccc1)C(C(=O)c1ccccc1)C1(O)C(=O)c2ccccc2C1=O | – | – | inactive
O=C1C2=C(Nc3ccccc3N2)OC1c1ccncc1 (stereo unspecified) | > 38 | > 38 | –
C=C(CN(C)C)C(=O)c1ccc(C)cc1C | > 200 | 11.7 | –
Cc1cccc2c(=O)c3ccccc3oc12 | > 170 | > 170 | –
O=C1CCc2cc3c(cc21)CC1(Cc2ccccc2C1)C3 | > 200 | 4.57 | –
CN=C(Nc1ccc(OC)c2ccccc12)SC | > 200 | > 100 | –
CO/C(=N\N=C\c1ccc(Cl)cc1Cl)c1ccncc1 | > 21.9 | > 21.9 | –
Oc1c(C2=NNC(c3cccs3)C2)ccc2ccccc12 (stereo unspecified) | > 200 | 33.1 | –
CC(=O)CC(=O)N1CCOC1=O | > 200 | 36.3 | –
COC(=O)c1ccc(C)cc1CC1Cc2cccc(C)c2C1=O (stereo unspecified) | > 200 | 5.37 | –
CC1=NN(c2ccccc2)C(=O)C1=C1SCCCS1 | > 46.8 | > 46.8 | –

From PubChem BioAssay AID179 (DTP/NCI, 2004)
